Data from US6582714B1, “Article for insert control by passive evaporation of an active ingredient” (priority 1995, dated 2003).

Legend:
A. aegypti mosquitoes [1] = assay: Olfactometer test (repellency from target air stream); format: in vivo; conditions: for mg to reach RD90: dose at which 90% of control population driven from target, 28 x 10 cm filter paper, female mosquitoes; for WEIGHT INDEX: ratio of weight of ingredient versus weight of DEET to achieve RD90, 25° C.
Text: The olfactometer test provides a means for measuring the effect of a volatile active ingredient on flying insects under precisely controlled conditions. Mosquitoes are used as the test insect. In this and the other Examples, below, the mosquitoes were A. aegypti. The olfactometer used for the olfactory tests described below generates two uniform, laminar flow air streams. These air streams consist of a target air stream superimposed upon and centered within a carrier air stream.
The olfactometer provides a square testing surface with an area of 929 cm^2. The testing area consists of a circular target area of 42 cm^2 centered on a square background surface area of 887 cm^2. In the tests described, a 200 ml/min flow of carbon dioxide was introduced into the carrier air stream to activate the mosquitoes. […] The flow rate of the carrier air stream was 300 to 350 liters/min. […] Elevated temperature and humidity at the level described for the target air stream are known to be attractive to mosquitoes. The flow rate of the target air stream was 12 liters/min.
The olfactometer has an air flow duct through which the carrier air flow strewn passes. A glass cylinder having one closed and one open end, an internal diameter of 6 cm and a depth of 14 cm is located within the air flow duct, with the longitudinal axis of the glass cylinder oriented parallel to the direction of flow of the carrier air flow stream, with the open end of the cylinder pointing down stream. The target air stream is generated by releasing a flow of temperature and humidity conditioned air into the glass cylinder near its closed end, from which point the air flows the length of the glass cylinder to exit at its open end.
Active insect control ingredients to be tested are impregnated in a filter paper test substrate (Grade 615 from VWR Scientific Inc.) having a length of 28 cm and a width of 10 cm. The filter paper test substrate is folded into a fluted cylinder and inserted coaxially within the glass cylinder to rest at a location between the point where the air is released into the glass cylinder and the open end of the glass cylinder. By this arrangement, the target air stream is caused to pass over the surface of the filter paper test substrate so that any active insect control ingredient present in the filter paper test substrate may evaporate into the target air stream before the target air stream exits the glass cylinder to continue, embedded within the flow of the carrier air stream.
Cubic test cages having 30.5 cm edges were constructed of four glass panels, with two opposing sides of the cubic test cages being open. One open side was designated the test panel and was covered with an airflow-transmitting, mosquito-retaining mesh. The opposite open side was covered with a closeable sleeve made of a tubular, open-weave, mosquito-retaining fabric well known in the art as “stockinet.” For any given test, the test cage normally contained from 250 to 350 female mosquitoes.
The test cage was placed in the air stream with the test panel facing and perpendicular to the direction of flow of the air streams of the olfactometer. In order to allow the mosquitoes to become activated by the carbon dioxide of the air streams, the test cage first was placed in the olfactometer for an initial 5 minute conditioning exposure. The test cage then was removed from the olfactometer for 3 minutes and then placed back in the olfactometer for a second 5 minute conditioning exposure. The test cage was again removed from the olfactometer for 3 minutes, during which time a control filter paper test substrate was inserted within the glass cylinder of the olfactometer. The test cage was then placed on the olfactometer for a 10 minute control exposure. The same procedure was repeated, using each time a filter paper test substrate impregnated with increasing amounts of active insect control ingredient. […]

[2] = Volatility index calculation (concentration in air from vapor pressure); format: physicochemical; conditions: for CONCENTRATION IN AIR: calculated from vapor pressure by ideal gas equation, 20 to 25° C.; for VOLATILITY INDEX: concentration in the air relative to DEET at 20 to 25° C.
A. aegypti mosquitoes [3] = assay: Activity index calculation (volatility index x weight index); conditions: volatility index multiplied by weight index; DEET = 1.00
Description: The “activity index” is obtained by the multiplying the volatility index and the weight index. The activity index is an attempt to predict the combined effect of volatility and potency by weight in the usefulness of an insect control active ingredient for insect control of flying insects by passive evaporation. The following activity indices were calculated from the volatility and weight indices given, above: […]

A. aegypti mosquitoes [4] = assay: Chamber test, first series (box fan), mosquito repellency and knock-down; format: in vivo; conditions: at least 50% repellency within 20 minutes with not more than a gram
Text: (§1) The chamber test protocol was developed to realistically model actual use conditions for the insect control article of the invention. A closed, generally featureless, approximately 28 m^3, box-like test chamber is used, the size of a small room. Six mosquito knock-down cages are distributed vertically within the test chamber, suspended from poles adjacent to opposite test chamber side walls, where they can be observed from outside the test chamber through chamber windows. Mosquitoes in the cages are observed during a test to evaluate the ability of a material being tested to knock down mosquitoes. An insect “knocked down” is one that is incapable of flying and usually is moribund in appearance. The insect may or may not actually be dead. The knock-down cages are cylindrical, approximately 6 cm long and 8 cm in diameter, and have screened but otherwise open ends.
(§2) Two repellency mosquito cages are also provided. The repellency cages are box-like screened cages, approximately 73 cm long and 16 cm square in cross section. All of the walls of the repellency cages are screened but otherwise generally open. Each repellency cage is divided by a clear plastic partition into a first holding area, which occupies approximately 45 cm of the length of the cage, and a second holding area, which occupies the remaining 28 cm. The plastic partition has a 4 cm diameter hole in its center that provides the only route by which mosquitoes may pass between the two holding areas. The repellency cages are mounted in a test chamber wall, with the plastic partition located in the plane of the test chamber wall, and are so oriented that the first holding area projects inwardly, into the test chamber, while the second holding area projects through the test chamber wall, out into normal room air.
(§3) A mouse cage essentially identical to a mosquito knock-down cage is mounted on the end of the first holding chamber of each repellency test cage that faces toward the interior of the test chamber. The mouse cage is separated from the repellency cage only by a mosquito-proof screen. One mouse is placed in the mouse cage during a test to provide an attractant for mosquitoes being held in the repellency test cage. Mosquitoes in the first holding area of a repellency cage thus are attracted toward the mouse, on the one hand, and repelled by the insect control article being tested, on the other hand.
(§4) When a test is run, fifty female mosquitoes are placed in the first holding area of each mosquito cage, with the partition hole closed by a removable door. Ten female mosquitoes are placed in each knock-down cage. The insect control article to be tested is placed centrally within the test chamber and the air flow is initiated. At timed intervals up to a total testing period of two hours, each knock-down cage and each repellency cage is visually examined, and the location, number, and condition of the mosquitoes are noted. The number of mosquitoes that have been driven to the second holding area provides a measure of the repellency of the insect control article being tested. The number of mosquitoes knocked down in the knock-down cages is also recorded. The general success of an insect control article is judged by both the mosquitoes repelled and those knocked down, in that both effects reduce the total number of mosquitoes available for biting.
Two series of tests were run using the chamber test protocol to evaluate the effect of insect control articles made in accordance with the invention. […]

A. aegypti mosquitoes [5] = assay: Chamber test, second series (small blower, 0.06 m^3 per minute); format: in vivo
Text: as §1, §2, §3, §4
In an additional series of tests using the chamber protocol, two insect control active ingredients were tested for their ability to achieve the preferred practical control level, defined above. The experiment of the first series was substantially repeated except that the substrate was a 0.5 cm thick, 4.5 cm diameter coil of common corrugated cardboard, with the channels of the corrugation presented endwardly to the direction of air flow. […]

[6] = 0.072 gm applied directly to the nine blades of the small blower, 0.06 m^3 per minute, two hour testing period
[7] = 0.5 cm thick, 4.5 cm diameter corrugated cardboard coil, blower 0.06 m^3 per minute, two hour test, NA = not achieved

Molecule	mg to reach RD90 (A. aegypti mosquitoes [1])	WEIGHT INDEX (A. aegypti mosquitoes [1])	CONCENTRATION IN AIR [2]	VOLATILITY INDEX [2]	ACTIVITY INDEX (A. aegypti mosquitoes [3])	practical insect control as defined (minimum practical control standard) (A. aegypti mosquitoes [4])	KD50 (A. aegypti mosquitoes [5]; [6])	RD50 (A. aegypti mosquitoes [5]; [6])	RD90 (A. aegypti mosquitoes [5]; [6])	Minutes to KD50 (A. aegypti mosquitoes [5]; [7])	Minutes to RD50 (A. aegypti mosquitoes [5]; [7])	Minutes to RD90 (A. aegypti mosquitoes [5]; [7])
CCN(CC)C(=O)c1cccc(C)c1 [DEET, N,N-diethyl-meta-toluamide]	95 milligrams/filter paper test substrate	1.00	1.72 × 10^−5 grams per liter	1.00	1.00							
C=CCC1=C(C)C(OC(=O)[C@@H]2[C@@H](C=C(C)C)C2(C)C)CC1=O (stereo partly drawn) [Bioallethrin]	5.5 milligrams/filter paper test substrate	0.058	1.46 × 10^−6 grams per liter	0.085	0.0049							
CC(C)=CC1C(C(=O)OC(C#N)c2cccc(Oc3ccccc3)c2)C1(C)C (stereo not drawn) [Cyphenothrin]	˜1000 milligrams/filter paper test substrate	˜10.5	1.85 × 10^−8 grams per liter	0.0011	˜0.011							
CC1(C)[C@H](C=C(Cl)Cl)[C@H]1C(=O)OCc1c(F)c(F)cc(F)c1F [Transfluthrin]	0.57 milligrams/filter paper test substrate	0.0059	6.09 × 10^−8 grams per liter	0.0035	0.00002	achieved	never achieved	never achieved	never achieved	20 min	30 min	80 min
CC1(C)C(C=C(Cl)Cl)C1C(=O)OC(C#N)c1ccc(F)c(Oc2ccccc2)c1 (stereo not drawn) [Cyfluthrin]	>1000 milligrams/filter paper test substrate	>10.5	<7.11 × 10^−9 grams per liter	<0.00041								
COP(=O)(OC)OC=C(Cl)Cl [DDVP]	40 milligrams/filter paper test substrate	0.42	2.63 × 10^−5 grams per liter	1.53	0.60	achieved						
Pentecychlothrin [Pentecychlothrin (Zhong X1)]	8.1 milligrams/filter paper test substrate	0.085	3.64 × 10^−7 grams per liter	0.021	0.0018							
C=CCC1=C(C)C(OC(=O)C2C(C=C(C)C)C2(C)C)CC1=O (stereo not drawn) [Allethrin (90% active), Allethrin]	8.0 milligrams/filter paper test substrate	0.085	1.92 × 10^−6 grams per liter	0.112	0.0095							
C#CC(OC(=O)C1C(C=C(C)C)C1(C)C)/C(C)=C/CC (stereo not drawn) [Vaporthrin]	5.3 milligrams/filter paper test substrate	0.058	9.75 × 10^−6 grams per liter	0.567	0.033	achieved						
CNC(=O)Oc1ccccc1OC(C)C [Propoxur (Baygon), Propoxur]	>120 milligrams/filter paper test substrate	>1.26										
Cc1c(F)c(F)c(COC(=O)[C@@H]2[C@H](/C=C(\Cl)C(F)(F)F)C2(C)C)c(F)c1F (racemic) [Tefluthrin]	1.3 milligrams/filter paper test substrate	0.014	1.37 × 10^−5 grams per liter	0.797	0.011							
C#CCC1=C(C)C(OC(=O)C2C(C=C(C)C)C2(C)C)CC1=O (stereo not drawn) [Prallethrin]	5.5 milligrams/filter paper test substrate	0.058	5.80 × 10^−7 grams per liter	0.034	0.0020	achieved					failed to achieve	
C=CCC1=C(C)C(OC(=O)[C@@H]2[C@@H](C=C(C)C)C2(C)C)CC1=O (stereo partly drawn) [Esbiothrin]	4.5 milligrams/filter paper test substrate	0.047	5.35 × 10^−6 grams per liter	0.311	0.0146	achieved						
CC1(C)C(C=C(Cl)Cl)C1C(=O)OCc1cccc(Oc2ccccc2)c1 (stereo not drawn) [Permethrin]	>1000 milligrams/filter paper test substrate	>10.5	7.11 × 10^−9 grams per liter	0.00041	>0.004							
